The target in one assay is T1, TcPINK1 (Tribolium castaneum, UniProt D6WMX4).
T1 construct: purchased MRC PPU Reagents and Services (University of Dundee, U.K.)
T1 sequence (D6WMX4 6-570): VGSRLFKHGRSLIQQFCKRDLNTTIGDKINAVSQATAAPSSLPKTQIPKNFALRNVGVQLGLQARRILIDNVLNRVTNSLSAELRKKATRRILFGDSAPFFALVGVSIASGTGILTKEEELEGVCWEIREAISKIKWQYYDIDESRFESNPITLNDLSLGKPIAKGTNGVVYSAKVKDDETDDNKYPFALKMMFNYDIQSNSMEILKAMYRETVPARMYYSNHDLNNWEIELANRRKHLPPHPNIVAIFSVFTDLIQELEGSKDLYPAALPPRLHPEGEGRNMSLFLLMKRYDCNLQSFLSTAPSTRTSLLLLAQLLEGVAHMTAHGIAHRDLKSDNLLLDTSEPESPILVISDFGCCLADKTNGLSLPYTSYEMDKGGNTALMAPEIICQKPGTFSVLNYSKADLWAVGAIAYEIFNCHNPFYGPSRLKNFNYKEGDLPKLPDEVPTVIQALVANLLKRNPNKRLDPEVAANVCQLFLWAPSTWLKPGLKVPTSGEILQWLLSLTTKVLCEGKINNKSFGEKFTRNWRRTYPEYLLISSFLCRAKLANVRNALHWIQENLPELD
Put plainly: PINK1 in vitro kinase assay with parkin or ubiquitin as substrates. It is filed as biochemical. Conditions: increasing concentrations, max 100 μM; human parkin or ubiquitin as substrates. Here is the method: This assay was carried out by the MRC PPU Reagents and Services (University of Dundee, U.K.). The assay was conducted as follows: TcPINK1 (5-20mU diluted in 50 mM Tris pH 7.5, 0.1 mM EGTA, 1 mg/ml BSA, 0.1% mercaptoethanol) is assayed against GST PARK2 TV3 or Ubiquitin-His in a final volume of […] containing 50 mM Tris pH 7.5, 0.1 mM EDTA, 10 mM DTT, protein substrate (0.3 mg/ml of GST PARK2 TV3 or 1 mg/ml of Ubiquitin-His, 10 mM magnesium acetate and 0.1 mM [33P-γ-ATP](50-1000 cpm/pmole) in the presence of the relevant small molecule (serial dilution with the highest concentration being 100 μM) and incubated for 30 min at room temperature. Assays are stopped by addition of 5 μl of 0.5 M (3%) orthophosphoric acid and then harvested onto P81 Unifilter plates with a wash buffer of 50 mM orthophosphoric acid.
To examine this further, we ran in vitro kinase assays employing recombinant and constitutively active Tribolium castaneum PINK1 (TcPINK1) and either human parkin or ubiquitin as substrates in the presence of increasing concentrations (max 100 μM) of kinetin riboside, benzyladenosine 9c or its triphosphate derivative (FIG. 6). […]

The subject of the next assay is PINK1 KO MEFs. Put plainly: MitoQC mitophagy assay, PINK1 knock-out MEF. The class given is cell-based. To be noted: 5 μM, 24 h. From the text: With the inhibition of ubiquitin phosphorylation and parkin localisation to the mitochondria by kinetin riboside and the nucleoside analogue 9c, we next asked whether these compounds still induce mitophagy in a PINK1 dependent manner. To explore this, we employed the established MitoQC assay for measuring mitophagy in cells^11,12.

Another assay deals with Ub Ser65 phosphorylation. Put plainly: Phospho-Ub (Ub Ser65) immunoblotting in parkin- or YFP-parkin-transfected HeLa cells. It is filed as cell-based. To be noted: for inhibition of PINK1-mediated ubiquitin phosphorylation (summary statement): in cells and astrocytes, induced by mitochondrial depolarizing agents CCCP and niclosamide. As for the experimental part: Both HeLa and parkin-overexpressed HeLa cells were maintained in DMEM high glucose (Gibco), 10% FBS (Sigma-Aldrich) at 37° C. with 5% CO2. For experiments, cells were counted and seeded into a range of culture plates, depending on the experiment, cell counting was done using the Cellometer Auto T4 with TrypanBlue (Gibco). […] Alternatively, HeLa cells were seeded in well plates and then transfected with […] of parkin cDNA using the PEI method once the plated cells reached 60% confluency. After 6 hours, the media was changed. Sub-culturing was done when the cells reached ˜90% confluency.
Cell culture with 70-80% confluency was lysed as follows: cells were washed with Phosphate Buffer Saline (PBS) (Sigma). 150 μl of lysis buffer was used on each well containing either: • 50 mM Tris-HCl pH 7.5, 1 mM EDTA, 1 mM EGTA, 0.27 M sucrose, 1 mM Na3VO4, 50 mM NaF, 5 mM Na pyrophosphate and fresh 1 mM benzamidine, 1% NP-40 and […]; or • 50 mM Tris-HCl pH 7.5, 1 mM EDTA, 1 mM EGTA, 10 mM Na β-glycerophosphate, 0.27 M sucrose, 1 mM Na3VO4, 50 mM NaF, 10 mM Na pyrophosphate with fresh 1 mM benzamidine, 1% Triton X-100, complete EDTA-free Protease Inhibitor, Phosphatase inhibitor cocktail 3 and 100 μM of 2-chloroacetamide.
The cells were scrapped and transferred to the microtube and eventually spun down at 12,000 rpm for 15 minutes at 4° C. Finally, the supernatant was transferred to the new microtubes and stored at −20° C. Protein concentration was measured using Bradford Assay. Serial concentrations 0.125; 0.25; 0.5 and 1 mg/ml of Bovine Serum Albumin (BSA) (Sigma Aldrich) were used as a standard. Samples were boiled at 90° C. for 5 minutes in SDS sample loading buffer.
The next day membranes were washed in TBST and incubated with horse radish peroxidase (HRP)-conjugated antibodies for 1 h at room temperature with agitation. Following TBST washes, proteins were visualised using Amersham™ ECL™ Prime kit (GE Biosciences) and imaged using the Bio-rad ChemicDoc. Primary antibodies used for western blotting; GAPDH (Abcam cat #ab9485), Phospho-Ub Ser 65 (Sigma-Aldrich cat #ABS1513-1), LC3B (Cell Signaling cat #3868S). Secondary antibodies used for western blotting; anti-rabbit HRP (Agilent Dako cat #P0399), anti-mouse HRP (Agilent Dako cat #P0260).
To explore this, we first treated parkin-transfected HeLa cells for 24 h with 50 μM kinetin, kinetin riboside or kinetin riboside ProTide, a monophosphate prodrug of kinetin riboside.
On the technique in general: Immunoblotting shows a protein as a band on a membrane.

Each structure is given as a SMILES string.

As for `OC[C@H]1O[C@@H](n2cnc3c(NCc4ccccc4)ncnc32)[C@H](O)[C@@H]1O` [9c, (2R,3R,4S,5R)-2-(6-(benzylamino)-9H-purin-9-yl)-5-(hydroxymethyl)tetrahydrofuran-3,4-diol], the “effect on TcPINK1 kinase activity (covalent inhibition)” value on TcPINK1 was “unlikely to be PINK1 covalent inhibitors”. The “mitophagy in PINK1 KO MEFs” value in the assay on PINK1 KO MEFs is “not observed”. The “inhibition of PINK1-mediated ubiquitin phosphorylation (summary statement)” value in the assay with Ub Ser65 phosphorylation is “inhibit ubiquitin phosphorylation”.

`OC[C@H]1O[C@@H](n2cnc3c(NCc4ccco4)ncnc32)[C@H](O)[C@@H]1O` [kinetin riboside, N^6-(2-furanylmethyl) adenosine]: the “effect on TcPINK1 kinase activity (covalent inhibition)” value on TcPINK1 is reported as “unlikely to be PINK1 covalent inhibitors”. The “mitophagy in PINK1 KO MEFs” value in the assay with PINK1 KO MEFs is “not observed”. In addition, the “inhibition of CCCP-induced phosphorylation of ubiquitin by pre-treatment” value was “inhibited” in the assay with Ub Ser65 phosphorylation (YFP-parkin HeLa cells, 50 μM 24 h, then 10 μM CCCP 1 h, immunoblot) and “inhibited the CCCP-induced phosphorylation of ubiquitin” with Ub Ser65 phosphorylation (parkin-transfected HeLa cells, 50 μM 24 h, then 10 μM CCCP 3 h, immunoblot). The “inhibition of niclosamide-induced phosphorylation of ubiquitin by pre-treatment” value with Ub Ser65 phosphorylation (YFP-parkin HeLa cells, 50 μM 24 h, then 10 μM niclosamide 1 h, immunoblot) was “inhibited”. Also, the “inhibition of PINK1-mediated ubiquitin phosphorylation (summary statement)” value in the assay with Ub Ser65 phosphorylation is “inhibit ubiquitin phosphorylation”. For the same molecule, the “phosphorylation of ubiquitin (Ub Ser65), compound alone” value with Ub Ser65 phosphorylation (parkin-transfected HeLa cells, 50 μM, 24 h, no CCCP, immunoblot) is listed as “did not lead to any notable phosphorylation of ubiquitin”.

The values above are taken from patent publication US20260014184A1, “ADENOSINE DERIVATIVES FOR USE IN THE TREATMENT OF NEURODEGENERATIVE DISORDERS AND CANCER” (UNIVERSITY COLLEGE CARDIFF CONSULTANTS LIMITED, priority 2022, published 2026).
